Patent publication US20190211099A1, “METHODS AND COMPOSITIONS FOR TREATING CANCER WITH SIGLEC-9 ACTIVITY MODULATORS” (KING'S COLLEGE LONDON, priority 2016, published 2019)

What was measured:
Assay type in all cases: cell-based, human
[1] = tested on: MUC1-ST educated monocytes and macrophages; assay: Secretion of PAI-1 and M-CSF from MUC1-ST educated monocytes and macrophages with PD98059 or verapamil
Experimental: ELISAs for IL-6, IL-12p70, TGF-β1, PAI-1, M-CSF, EGF, SHP2, phospho-SHP2 (Biotechne) were all carried out as per manufacturer's instructions.
To explore this, the secretion of PAI-1 and M-CSF from MUC1-ST educated monocytes and macrophages was measured following treatments with 1 μM PD98059 or 20 μM verapamil for 20 minutes at 37° C., where indicated.

THP-1 cells = assay: PAI-1, M-CSF and kynurenine in supernatants of differentiated THP-1 cells; settings: THP-1; PD98059
Experimental: THP-1 cells were cultured at a concentration of 1×10^6/mL in AIM V medium. Cells were differentiated using […] phorbol 12-myristate 13-acetate (PMA) on day 0 and 100 ng/mL LPS on day 3 in the presence or absence of 100 μg/mL MUC1-ST or MUC1-T. Cell supernatants were harvested on day 5 and PAI-I concentration measured by ELISA.
Given that IDO catalyzes the rate-limiting step in the metabolism of tryptophan, the tryptophan metabolite kynurenine was detected as follows. 604, supernatant was mixed with 304, 30% trichloroacetic acid (TCA) and incubated for 30 minutes at 50° C. The supernatant was spun at 3000×g and 50 μL was harvested and mixed with 50 μL freshly prepared Ehrlich Reagent (2% p-dimethylaminobenzaldehyde in glacial acetic acid). After 10 minutes optical density (O.D.) was measured at 492 nm, and concentrations were calculated against a kynurenine standard curve. An increase in the tryptophan metabolite kynurenine was observed (FIG. 11D).
The intracellular effects of MUC1-ST binding to Siglec-9 were further explored in the monocytic cell line, THP-1. THP-1 cells were cultured for three days at a concentration of 1×10^6/mL in AIM V medium and differentiated using […] phorbol 12-myristate 13-acetate (PMA) in the presence or absence of 100 μg/mL MUC1-ST. […] THP-1 cells were further treated with DMSO or the MEK/ERK inhibitor PD98059 at 1004, and the concentration of PAI-1, M-CSF and kynurenine in cell supernatants were measured as described above. […] This increase in concentration was blocked by the MEK/ERK inhibitor PD98059 (FIG. 4I).

allogeneic CD8+ T cells = assay: Co-culture of MUC1-ST treated macrophages with allogeneic CD8+ T cells; settings: MEK signalling inhibited in the macrophages (FIG. 13K)
Experimental: Thereafter, the effects of MUC1-ST educated macrophages on T cell function were analyzed. Macrophages treated with MUC1-ST were co-cultured with eFluor® 670 labelled allogeneic CD8+ T cells in the presence of absence of anti-Siglec-9 antibody or isotype control. Indeed, macrophages that had been educated with MUC1-ST were decreased in their ability to stimulate the proliferation of allogeneic CD8 T cells (FIG. 11E). […] (FIG. 11F). This profile of expression and functional activity is indicative of tumor-associated macrophages (TAMs), which play a role in promoting tumor progression (Noy et al. (2014) IMMUNITY 41: 49-61; Sousa et al. (2015) BREAST CANCER RES. 17: 101; Qian et al. (2010) CELL 141: 39-45).

monocytes from PBMCs = assay: MUC1-ST mediated TAM formation in monocytes from PBMCs, 7 day serum-free culture; settings: PD98059 at 10 μM
Experimental: To further explore the role of MUC1-ST in inducing a TAM-like phenotype, monocytes from PBMCs were plated in serum-free medium, incubated with MUC1-ST or PBS, and cultured for 7 days.
Intracellular calcium flux can lead to activation of the MEK/ERK pathway (Christo et al. (2015) IMMUNOL. AND CELL BIOLOGY 93: 694-704). […] Furthermore, treatment with the MEK inhibitor PD98059 at 10 μM inhibited MUC1-ST mediated TAM formation in monocytes (FIGS. 12B, 12D-12E).

CD8+ T cells = assay: Co-culture of MUC1-ST educated M-CSF macrophages with CD3/CD28 stimulated autologous T cells; settings: antibody present
Experimental: In addition, primary monocytes were induced to differentiate to macrophages in the presence of MUC1-ST and then co-cultured for 48 hours with CD3/CD28 stimulated autologous CD8+ or CD4+ T cells. T cell proliferation and CD69/CD25 cell surface expression were measured using flow cytometry.

[2] = tested on: monocyte derived dendritic cells; assay: Differentiation of monocytes into dendritic cells; settings: 10 μg/10^6 cells anti-Siglec-9 before MUC1-ST; 10 μg/ml anti-IL-6Rα every 2 days
Experimental: To differentiate monocytes into macrophages, CD14+ cells were plated at a concentration of 1×10^6/mL in AIM V medium (Lonza) with either 50 ng/mL recombinant human M-CSF or 50 ng/mL recombinant human GM-CSF (Bio-Techne). The cytokines were added every 3 days. The cells were incubated at 37° C., 5% CO2 for 7 days to fully differentiate, before being characterized as macrophages via phenotypic flow cytometric analysis. To differentiate monocytes into dendritic cells (moDC), CD14+ cells were plated at a concentration of 1×10^6/mL in AIM V medium with 1500 U/mL recombinant human IL-4 (Bio-Techne) and 400 U/mL human GM-CSF (Bio-Techne) for 6 days to fully differentiate, before being characterized as immature DCs via phenotypic flow cytometric analysis (Epics XL, Beckman Coulter or FACSCalibur, BD Biosciences plus WinMDI or Cellquest software). MoDCs were matured using 1 μg/mL LPS for 24 hours.
In addition, the effects of MUC1-ST on the differentiation of monocytes into dendritic cells were assessed. Briefly, monocytes were treated with MUC1-ST on day 0 and differentiated into immature dendritic cells (DCs) using IL-4 (1500 U/mL) and GM-CSF (400 U/mL) in AIM-V media for 6 days. Immature DCs were matured using 1 μg/mL LPS for 24 hours. […]

[3] = tested on: M-CSF macrophages differentiated with LPS and IFNγ; assay: Differentiation of monocytes into M(LPS+IFNγ) macrophages: CD86 and IL-12; settings: blocking antibodies
Experimental: Both the cell phenotype staining and neutralization studies described in the Examples were performed using the following antibodies (all anti-human): Siglec-9 (Biotechne; 191240), Siglec-9 FITC (Biotechne; 191240), Siglec-3 (Biotechne; 6C5/2), Siglec-7 (Biotechne; AF1138), Siglec-3 FITC (BD; P67.6), Siglec-7 PE (Biolegend; 6-434), Siglec-10 PE (Biolegend; 5G6), Siglec-1 (abcam; 7D2), HLA-DR FITC (Beckman Coulter; IM0463U), CD16 FITC (Biolegend; B73.1), CD14 FITC (BD 555397), CD69 PE (Beckman Coulter; IM1943), CD25 FITC (ABX228FITC), CD86 PE (Beckman Coulter; IM2729U), CD40 FITC (BD 555588), CD83 PE (Beckman Coulter; IM2218), CD163 PE (Biolegend; GHI/61), CXCR1 FITC (BD Pharmongen; 551126), CD45 PC5 (Beckman Coulter; IM2653U), CD206 PE (ebioscience; 19.2), PD-L1 PE (Biolegend; 29E.2A3), CD36 (Santa Cruz; H-300), TGFbetaRII (Bio-Techne; AF-241), IL-6Rα (Tocilizumab; Roche. A generous gift from Dr. Valerie Corrigall). […] At least 1×10^4 events were evaluated using either Epics XL, (Beckman Coulter) or FACSCalibur (BD Biosciences) flow cytometers. […]
Given that IL-6 and NO are known differentiation modulators (Oosterhoff et al. (2012) ONCOIMMUNOLOGY 1: 649-658; Bogdan (2015) TREND IMMUNOL. 36: 161-178) the effects of MUC1-ST on the differentiation of monocytes into macrophages was assessed. […]

[4] = 20 μM verapamil, 20 minutes at 37° C.
[5] = 1 μM PD98059, 20 minutes at 37° C.

Compound: COc1ccc(CCN(C)CCCC(C#N)(c2ccc(OC)c(OC)c2)C(C)C)cc1OC (stereo not shown) [verapamil]
- secretion of M-CSF [1, 4]: significantly inhibited
- secretion of PAI-1 [1, 4]: significantly inhibited

Compound: COc1cccc(-c2cc(=O)c3ccccc3o2)c1N [PD98059, reference compound]
- MUC1-ST induced increase in PAI-1, kynurenine and M-CSF concentration (THP-1 cells): blocked
- secretion of M-CSF [1, 5]: significantly inhibited
- secretion of PAI-1 [1, 5]: significantly inhibited
- repression of T cell proliferation by MUC1-ST treated macrophages (allogeneic CD8+ T cells): could be overcome
- MUC1-ST mediated TAM formation in monocytes (monocytes from PBMCs): inhibited

Compound: Tocilizumab [anti-IL-6Rα, reference compound]
- reversal of the inhibition of CD8+ T cell activation (CD8+ T cells): could be reversed
- reversal of the effect of MUC1-ST on differentiation of dendritic cells [2]: significantly reverse
- rescue of MUC1-ST induced lowering of CD86 and IL-12 [3]: partially rescued
